The numbers were not newly measured in patent US20070117867A1, “Kit comprising three independent compositions and methods for building muscle, increasing strength, increasing muscle size, increasing muscle performance and reducing muscle fatigue” (priority 2005, published 2007), which cites them from elsewhere.

In one series the test system is muscle. To be noted: Creatine supplementation.
A further series deals with protein synthesis. To be noted: for the purposes of muscle growth and development.

For `O=C(O)CCCCC1CCSS1` (stereo not drawn) [Alpha Lipoic Acid], the “body's utilization of blood sugar” value in the series with type II diabetics is listed as “significantly increase”.

Consider `CN(CC(=O)O)C(=N)N` [Creatine], for which, in the series on muscle, the “concentration of Creatine in the muscle” value is on record as “increase”. In addition, the “resynthesis of Phosphocreatine” value in the series with muscle (within 2 minutes of recovery following exercise) is listed as “increase”.

Take `CC(C)C[C@H](N)C(=O)O` [Leucine]: the protein synthesis entry in the series on protein synthesis was “directly activate”.
